Test results taken from article PMC4633220, “Antiaggregation Potential of Padina gymnospora against the Toxic Alzheimer’s Beta-Amyloid Peptide 25–35 and Cholinesterase Inhibitory Property of Its Bioactive Compounds” (PLoS ONE, 2015).
pIC50: −log10 of the molar value.

Columns and labels:
[1] = test system: T1, Aβ 25–35 pre-formed fibrils; assay: Thioflavin T assay, Phase II: disaggregation of pre-formed mature fibrils; format: biochemical; details: pre-formed Aβ 25–35 fibrils with ACTPG 250 μg/ml or galantamine 50 μM
T1 construct: Aβ 25–35 peptide was purchased from GenScript USA Inc; purchased GenScript USA Inc
Protocol: According to the method of Ramesh et al the anti-aggregation and disaggregation property of P. gymnospora was evaluated in two different phases. In phase I, the inhibition of aggregate formation was assessed by using oligomers. Consequently, in Phase II the disaggregation of the pre-formed fibrils were determined. Freshly prepared Aβ 25–35 (100 μM) monomer was incubated in Tris-HCl buffer pH 7.4 at 37°C for 20 h. However, after 20 h, an increase in fluorescence intensity was observed which represents the formation of oligomers. The acetone extract of P. gymnospora (ACTPG) (250 and 500 μg/ml) was added to the oligomers and subjected to incubation at 48 h for dose fixation. […] In phase I, the freshly prepared Aβ 25–35 (100 μM) was incubated with ACTPG (250 μg/ml), and the aggregation pattern was evaluated by ThT assay with the aliquots taken from the incubation mixture at 20 h and 48 h respectively. […] After that, ACTPG (250 μg/ml) was co-incubated with the pre-formed fibrils, and the disaggregation pattern was evaluated by taking the aliquots of incubation mixture at 96 h and 9 days using Thioflavin T assay using the standard Galantamine (50μM) as a positive control. […]
Thioflavin T-induced fluorescence changes were measured to quantify amyloid fibril formation by spectrofluorimeter (Microplate Analyzer) as described by. […]

AChE from Electric eel = biological target: T2, AChE from Electric eel (Electrophorus electricus, UniProt O42275); assay: AChE inhibitory assay (modified Ellman 96-well microplate); format: biochemical
T2 construct: AChE from Electric eel (Type-VI-S, EC 3.1.1.7, Sigma); purchased Sigma Type-VI-S
T2 sequence (O42275 24-633): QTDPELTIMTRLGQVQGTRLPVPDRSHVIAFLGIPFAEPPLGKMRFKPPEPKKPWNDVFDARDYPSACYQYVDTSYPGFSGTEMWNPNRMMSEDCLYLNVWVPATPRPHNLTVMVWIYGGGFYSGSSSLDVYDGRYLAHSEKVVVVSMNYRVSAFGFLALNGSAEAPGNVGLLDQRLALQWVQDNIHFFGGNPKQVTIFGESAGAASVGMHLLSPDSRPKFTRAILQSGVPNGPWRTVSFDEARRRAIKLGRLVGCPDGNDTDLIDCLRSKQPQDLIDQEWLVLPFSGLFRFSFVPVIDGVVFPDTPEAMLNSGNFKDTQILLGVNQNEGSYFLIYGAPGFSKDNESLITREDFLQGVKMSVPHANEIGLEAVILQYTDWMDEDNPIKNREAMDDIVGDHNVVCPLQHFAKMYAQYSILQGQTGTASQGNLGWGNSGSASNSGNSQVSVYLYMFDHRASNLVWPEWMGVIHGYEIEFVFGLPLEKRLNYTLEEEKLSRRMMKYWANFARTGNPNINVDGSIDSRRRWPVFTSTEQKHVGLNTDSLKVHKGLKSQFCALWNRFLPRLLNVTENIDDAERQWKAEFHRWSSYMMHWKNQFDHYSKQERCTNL
Protocol: (§1) ChE inhibitory activities were measured using a modified 96-well microplate assay developed by. […] After incubation, 125 μl of 3 mM DTNB was added and the total volume was made up to 300 μl with Tris- HCl buffer (pH 8.0/7.4). Enzyme activity was initiated by the addition of 50 μl of 15 mm ATCI/BTCI. […] AChE activity was expressed as U/mg of protein (1U = μmol of thiocholine iodide formed/min/mg protein). […] Percentage of inhibition of AChE/BuChE was determined by comparison of rates of reaction of samples relative to the blank (Tris-HCl buffer) using the formula, where SA is the specific activity.
(§2) % of inhibition = [(SA of control − SA of test sample) / SA of control]*100

BuChE from horse serum = biological target: T3, BuChE from horse serum (Equus caballus, UniProt P81908); assay: biochemical
T3 construct: BuChE from horse serum (EC 3.1.1.8, MP Biomedicals); purchased MP Biomedicals; host or cells: horse serum
T3 sequence (P81908 whole entry): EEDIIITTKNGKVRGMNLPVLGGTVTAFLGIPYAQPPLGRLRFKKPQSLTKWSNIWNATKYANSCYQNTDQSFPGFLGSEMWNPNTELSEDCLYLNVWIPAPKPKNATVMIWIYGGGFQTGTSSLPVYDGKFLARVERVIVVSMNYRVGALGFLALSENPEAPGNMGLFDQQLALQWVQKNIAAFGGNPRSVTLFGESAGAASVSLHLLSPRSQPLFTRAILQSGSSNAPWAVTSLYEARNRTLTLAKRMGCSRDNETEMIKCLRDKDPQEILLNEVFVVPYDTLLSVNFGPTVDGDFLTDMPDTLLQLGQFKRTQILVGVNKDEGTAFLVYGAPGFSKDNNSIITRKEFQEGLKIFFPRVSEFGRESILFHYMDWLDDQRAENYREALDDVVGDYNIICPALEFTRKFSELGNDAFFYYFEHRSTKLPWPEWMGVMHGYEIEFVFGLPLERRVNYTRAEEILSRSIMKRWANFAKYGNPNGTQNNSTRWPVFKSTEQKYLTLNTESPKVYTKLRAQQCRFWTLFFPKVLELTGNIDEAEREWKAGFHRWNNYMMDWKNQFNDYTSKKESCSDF
Protocol: as §1, §2

Compound	Thioflavin T fluorescence intensity ([1]; 96 h, Aβ alone 4.67 ± 0.28 AU)	Thioflavin T fluorescence intensity ([1]; 9 days, Aβ alone 6.06 ± 0.47 AU)	pIC50 (AChE from Electric eel)	inhibition at 50 µg/mL (AChE from Electric eel; read-out: maximum AChE inhibitory activity)	pIC50 (BuChE from horse serum)	inhibition at up to 50 µg/mL (BuChE from horse serum; 10–50 μg/ml tested, at 50 μg/ml, read-out: maximum BuChE inhibitory activity)
COc1ccc2c3c1O[C@H]1C[C@@H](O)C=C[C@@]31CCN(C)C2 [Galantamine]	3.62 ± 0.55 AU	2.86 ± 0.94 AU	–	–	–	–
CC(C)=CCC[C@](C)(O)[C@@H]1CC=C(C)CC1 [alpha-bisabolol, Alpha-bisabolol]	–	–	> 4.35	87%	> 4.35	66%
